Experimental data from patent US20250099420A1, “SMALL MOLECULE MODULATORS OF GPR139 COMPLEX” (University of Florida Research Foundation, Incorporated, priority 2022, published 2025).
Where two headings read alike, the source gives them in different places.

Assays:
[1] = tested on: parental HEK cells; test: HEK parental Agonist Counterscreen Assay (non-transfected cells); type: cell-based; conditions: for Averaged Max % Response (±St. Dev.): activity relative to known control
Text: The high control for the agonist counterscreen was Forskolin not acetylcholine.

[2] = biological target: T1, GPR139 (Homo sapiens, UniProt Q6DWJ6); test: GPR139 Agonist titration / agonist counterscreen assay (calcium detection, HEK-GPR139 cells); type: cell-based; parameters: expressed in transfected cells; host or cells: HEK Aequorin cells, Maxcyte transient transfection; conditions: GPR139 Agonist Activity; for Averaged Max % Response (±St. Dev.): activity relative to known control; for EC50: read-out: EC50
T1 sequence (Q6DWJ6 1-353): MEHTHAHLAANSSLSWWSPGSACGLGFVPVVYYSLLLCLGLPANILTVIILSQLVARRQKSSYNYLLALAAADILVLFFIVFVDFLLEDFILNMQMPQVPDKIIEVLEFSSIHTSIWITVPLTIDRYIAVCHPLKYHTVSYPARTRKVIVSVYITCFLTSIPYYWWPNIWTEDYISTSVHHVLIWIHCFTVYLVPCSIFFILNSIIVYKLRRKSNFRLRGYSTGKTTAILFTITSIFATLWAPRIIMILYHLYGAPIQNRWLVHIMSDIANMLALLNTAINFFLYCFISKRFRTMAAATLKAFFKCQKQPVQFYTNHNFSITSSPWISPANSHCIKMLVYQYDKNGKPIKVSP
Protocol: GPR activity was assessed using a calcium detection assay. […] Negative control samples were treated with DMSO. […] Intracellular calcium was measured using Calcium 5.

[3] = Homo sapiens, HEK293, HEK Agonist Activity, parental non-transfected HEK cells
[4] = values printed in E-notation without unit
[5] = HEK Agonist Activity section of Table 4 (parental HEK counterscreen)
[6] = Homo sapiens, HEK293, HEK Agonist Activity section of Table 4 (parental HEK counterscreen)

Lipophilic Efficiency (logD) ([1]; HEK Agonist Activity) | Lipophilic Efficiency (logP) ([1]; HEK Agonist Activity) | Averaged Max % Response (±St. Dev.) [2] [%] | Lipophilic Efficiency (logD) ([2]; based on logD) | Lipophilic Efficiency (logP) ([2]; based on logP) | Hill Slope ([2]; fitted dose-response curve) | Efficiency Ligand ([2]; ligand efficiency) | EC50 [2, 4] [nM] | Lipophilic Efficiency (logD) ([1]; HEK Agonist Activity section) | Lipophilic Efficiency (logP) ([1]; HEK Agonist Activity section) | Efficiency Ligand [2] | Hill Slope [2] | Lipophilic Efficiency (logD) [2] | Lipophilic Efficiency (logP) [2] | SMILES | Averaged Max % Response (±St. Dev.) ([1]; HEK Agonist Activity) [%] | EC50 [1, 3] [nM] | EC50 [1, 5] [nM] | Averaged Max % Response (±St. Dev.) ([1]; HEK Agonist Activity section) [%] | also measured
– | – | 77.18 ± 14.00 | – | – | – | – | – | 0.91 | 0.91 | 0.38 | 1.01 | 2.24 | 2.24 | N#Cc1ccc(OC(=O)COc2cccc3ccccc23)cc1 [SR-01000005203] | – | – | – | 16.23 ± 3.90 | EC50 [1, 6]: > 13900 nM; EC50 ([2]; HEK-GPR139 cells): 651 nM
– | – | 63.10 ± 2.62 | – | – | – | – | – | 1.05 | 1.05 | 0.26 | 1.07 | 1.89 | 1.89 | CCOC(=O)N1CCC2=C(CC(NC(=O)Cc3cccc4ccccc34)=C2C(C)=O)C1 [SR-01000011241] | – | – | – | 1.28 ± 10.93 | EC50 [1, 6]: > 14200 nM
1.41 | 1.40 | 93.40 ± 11.14 | 4.45 | 4.44 | 0.63 | 0.48 | 13.3 | – | – | – | – | – | – | Cc1cc(Cl)ccc1OC(C)C(=O)NNC(=O)c1ccccc1 (centres unmarked) [SR-01000013313] | 2.95 ± 4.76 | > 14400 | – | – | –

Continued, compound first:

SMILES | Lipophilic Efficiency (logD) ([1]; HEK Agonist Activity) | Lipophilic Efficiency (logP) ([1]; HEK Agonist Activity) | Averaged Max % Response (±St. Dev.) [2] [%] | Lipophilic Efficiency (logD) ([2]; based on logD) | Lipophilic Efficiency (logP) ([2]; based on logP) | Hill Slope ([2]; fitted dose-response curve) | Efficiency Ligand ([2]; ligand efficiency) | EC50 [2, 4] [nM] | Lipophilic Efficiency (logD) ([1]; HEK Agonist Activity section) | Lipophilic Efficiency (logP) ([1]; HEK Agonist Activity section) | Efficiency Ligand [2] | Hill Slope [2] | Lipophilic Efficiency (logD) [2] | Lipophilic Efficiency (logP) [2] | Averaged Max % Response (±St. Dev.) ([1]; HEK Agonist Activity) [%] | EC50 [1, 3] [nM] | EC50 [1, 5] [nM] | Averaged Max % Response (±St. Dev.) ([1]; HEK Agonist Activity section) [%] | also measured
CCC1Cc2ccc(C)cc2CC1C(=O)Nc1ccc(-c2cn[nH]c2)cc1OCCN(C)C (centres unmarked) [SR-00000007138] | 3.12 | 1.76 | 109.71 ± 13.62 | 5.84 | 4.48 | 0.17 | 0.31 | 27.1 | – | – | – | – | – | – | 10.53 ± 4.93 | > 14100 | – | – | –
COc1cccc(CNC(=O)Nc2ccc(-c3ccncc3)cc2)c1.O=C(O)C(F)(F)F [SR-00000007266] | – | – | 100.59 ± 15.12 | – | – | – | – | – | 1.76 | 1.75 | 0.36 | 1.16 | 3.29 | 3.29 | – | – | > 14100 | 23.72 ± 3.44 | EC50 ([2]; HEK-GPR139 cells): 408 nM
Cc1cccc(CCNC(=O)c2c[nH]c3cc(-c4cn[nH]c4)ccc23)c1 [SR-00000007279] | 2.30 | 2.29 | 142.11 ± 3.85 | 4.81 | 4.80 | 0.18 | 0.38 | 43.1 | – | – | – | – | – | – | 17.20 ± 7.85 | > 14100 | – | – | –
CN1CC[C@H](Oc2cc(-c3cn[nH]c3)ccc2NC(=O)N(Cc2ccccc2)C2CC2)C1.O=C(O)C(F)(F)F.O=C(O)C(F)(F)F [SR-00000007518] | – | – | 91.59 ± 7.88 | 4.71 | 3.64 | 0.81 | 0.30 | 120 | 2.64 | 1.58 | – | – | – | – | – | – | > 14100 | 23.13 ± 2.30 | –
COc1cc(OC)cc(-c2nnc(NC(=O)Cc3cccc4ccccc34)o2)c1 [SR-01000012205] | 1.43 | 1.43 | 109.87 ± 14.69 | 4.06 | 4.05 | 0.93 | 0.36 | 34.4 | – | – | – | – | – | – | 1.53 ± 2.99 | – | – | – | EC50 ([1]; HEK Agonist Activity, parental non-transfected HEK cells): > 14500 nM
O=C(Cc1cccc2ccccc12)Nc1nnc(-c2cccs2)o1 [SR-01000012264] | – | – | 85.12 ± 11.10 | 3.36 | 3.36 | 0.80 | 0.40 | 138 | 1.35 | 1.34 | – | – | – | – | – | – | > 14300 | 3.88 ± 6.42 | –
